Columns and labels:
[1] = target: T1, RAGE (sRAGE) binding to Carboxymethyl Lysine (CML) (Homo sapiens, UniProt Q15109); assay: ELISA assay: inhibition of sRAGE binding to plate-bound CML; conditions: ligand CML coated on plate, concentration at which 50% signal has been inhibited
T1 construct: extracellular domain can be isolated by proteolysis of RAGE to generate soluble RAGE (sRAGE) comprised of the V and C domains
Protocol: (§1) This method is also described and claimed in co-pending U.S. Ser. No. 09/799,152 filed Mar. 5, 2001.
(§2) S100b, β-amyloid and CML (500 ng/100 μL/well) in 100 mM sodium bicarbonate/sodium carbonate buffer (pH 9.8) is loaded onto the wells of a NUNC Maxisorp flat bottom 96 -well microtitre plate. The plate is incubated at 4° C. overnight. The wells are aspirated and treated with 50 mM imidazole buffer saline (pH 7.2) (with 1 mM CaCl2/MgCl2) containing 1% bovine serum albumin (BSA) (300 μL/well) for two h at 37° C.
(§3) Test compounds are dissolved in nanopure water (concentration: 10-100 μM). DMSO may be used as co-solvent. 25 μL of test compound solution in 2% DMSO is added, along with 75 μL SRAGE (4.0×10^−4 mg/mL FAC) to each well and samples are incubated for 1 h at 37° C. The wells are washed 3 times with 155 mM NaCl pH 7.2 buffer saline and are soaked 10 seconds between each wash.
(§4) Non-Radioactive Binding is Performed by Adding:
(§5) 10 μL Biotinylated goat F(ab′)2 Anti-mouse IgG. (8.0×10^−4 mg/mL, FAC)
(§6) 10 μL Alk-phos-Sterptavidin (3×10^−3 mg/mL FAC)
(§7) 10 μL Polyclonal antibody for sRAGE (FAC 6.0×10^−3 mg/mL)
(§8) to 5 mL 50 mM imidazole buffer saline (pH 7.2) containing 0.2% bovine serum albumin and 1 mM […]. The mixture is incubated for 30 minutes at 37° C. 100 μL complex is added to each well and incubation is allowed to proceed at rt for 1 h. Wells are washed 3 times with wash buffer and soaked 10 s between each wash. 100 μL 1 mg/mL (pNPP) in 1 M diethanolamine (pH adjusted to 9.8 with HCl) is added. Color is allowed to develop in the dark for 1 to 2 h at rt. The reaction is quenched with 10 μL of stop solution (0.5 N NaOH in 50% ethanol) and the absorbance is measured spectrophotometrically with a microplate reader at 405 nm.

[2] = target: T2, RAGE (sRAGE) binding to β-amyloid (Homo sapiens, UniProt Q15109); assay: ELISA assay: inhibition of sRAGE binding to plate-bound β-amyloid; conditions: ligand β-amyloid coated on plate, concentration at which 50% signal has been inhibited
T2 construct: extracellular domain can be isolated by proteolysis of RAGE to generate soluble RAGE (sRAGE) comprised of the V and C domains
Protocol: as §1, §2, §3, §4, §5, §6, §7, §8

[3] = target: T3, RAGE (sRAGE) binding to S100b (Homo sapiens, UniProt Q15109); assay: ELISA assay: inhibition of sRAGE binding to plate-bound S100b; conditions: ligand S100b coated on plate, concentration at which 50% signal has been inhibited, read-out: ELISA Assay IC50 (μM) S-100b
T3 construct: extracellular domain can be isolated by proteolysis of RAGE to generate soluble RAGE (sRAGE) comprised of the V and C domains
Protocol: as §1, §2, §3, §4, §5, §6, §7, §8

T3 sequence (Q15109 23-342 limits assumed): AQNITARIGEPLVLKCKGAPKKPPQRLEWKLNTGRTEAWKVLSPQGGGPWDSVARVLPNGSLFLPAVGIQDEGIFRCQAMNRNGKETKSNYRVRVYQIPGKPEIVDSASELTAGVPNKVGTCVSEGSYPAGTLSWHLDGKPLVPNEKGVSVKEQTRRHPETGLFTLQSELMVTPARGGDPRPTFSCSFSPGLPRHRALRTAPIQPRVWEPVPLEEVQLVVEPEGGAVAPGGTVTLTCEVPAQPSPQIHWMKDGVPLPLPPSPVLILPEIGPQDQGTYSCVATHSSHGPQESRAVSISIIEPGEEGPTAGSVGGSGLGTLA
T2 sequence (Q15109 23-342 limits assumed): as above
T1 sequence (Q15109 23-342 limits assumed): as above

Row | Molecule | IC50 [1] | IC50 [2] | IC50 [3]
1 | CCCCOc1cc(OCCCN(CC)CC)ccc1NC(=O)C(CC1CCN(C(=O)OC(C)(C)C)CC1)NC(=O)OCC1c2ccccc2-c2ccccc21 (stereo not drawn) [Example 22, 3-(1-Tert-butoxycarbonylpiperidin-4-yl)-2-(9-fluorenylmethoxycarbonylamino)propionic Acid 4-Diethylaminopropoxy-2-butoxyaniline Amide] | 0.5 to 1 µM | 0.5 to 1 µM | 1 to 5 µM
2 | CCCCOc1cc(OCCCN(CC)CC)ccc1NC(=O)C(CC1CCNCC1)NC(=O)OCC1c2ccccc2-c2ccccc21 (stereo not drawn) [Example 23, 3-(Piperidin-4-yl)-2-(9-fluorenylmethoxycarbonylamino)propionic Acid 4-Diethylaminopropoxy-2-butoxyaniline Amide] | 1 to 5 µM | 0.5 to 1 µM | 0.5 to 1 µM
3 | CCCCOc1cc(OCCCN(CC)CC)ccc1NC(=O)C(CC1CCN(Cc2ccccc2)CC1)NC(=O)OCC1c2ccccc2-c2ccccc21 (stereo not drawn) [Example 24, 3-(1-Benzylpiperidin-4-yl)-2-(9-fluorenylmethoxycarbonylamino)propionic Acid 4-Diethylaminopropoxy-2-butoxyaniline Amide] | < 0.5 µM | 0.5 to 1 µM | 0.5 to 1 µM
4 | CCCCOc1cc(OCCCN(CC)CC)ccc1NC(=O)C(N)CC1CCN(Cc2ccccc2)CC1 (stereo not drawn) [Example 25, 3-(1-Benzylpiperidin-4-yl)-2-aminopropionic Acid 4-Diethylaminopropoxy-2-butoxyaniline Amide] | 10 to 20 µM | 10 to 20 µM | 5 to 10 µM
5 | CCCCOc1cc(OCCCN(CC)CC)ccc1NC(=O)C(CC1CCN(C(=O)OCc2ccccc2)CC1)NC(=O)OCC1c2ccccc2-c2ccccc21 (stereo not drawn) [Example 26, 3-(1 -Benzyloxycarbonylpiperidin-4-yl)-2-(9-fluorenylmethoxycarbonyamino)propionic Acid 4-Diethylaminopropoxy-2-butoxyaniline Amide] | 0.5 to 1 µM | 1 to 5 µM | 1 to 5 µM
6 | CCCCOc1cc(OCCCN(CC)CC)ccc1NC(=O)C(CC1CCN(C(=O)c2ccccc2)CC1)NC(=O)OCC1c2ccccc2-c2ccccc21 (stereo not drawn) [Example 27, 3-(1 -Benzoylpiperidin-4-yl)-2-(9-fluorenylmethoxycarbonylamino)propionic Acid 4-Diethylaminopropoxy-2-butoxyaniline Amide] | 1 to 5 µM | 1 to 5 µM | 1 to 5 µM
7 | CCCCOc1cc(OCCCN(CC)CC)ccc1NC(=O)C(CC1CCN(C(=O)c2ccccc2)CC1)NC(=O)c1ccccc1 (stereo not drawn) [Example 28, 3-(1-Benzoylpiperidin-4-yl)-2-benzoylaminopropionic Acid 4-Diethylaminopropoxy-2-butoxyaniline Amide] | 1 to 5 µM | 5 to 10 µM | 5 to 10 µM
8 | CCCCOc1cc(OCCCN(CC)CC)ccc1NC(=O)C(CC1CCCN(C(=O)OC(C)(C)C)C1)NC(=O)OCC1c2ccccc2-c2ccccc21 (stereo not drawn) [Example 29, 3-(Tert-butoxycarbonylpiperidin-3-yl)-2-(9-fluorenylmethoxycarbonylamino)propionic Acid 4-Diethylaminopropoxy-2-butoxyaniline Amide] | 1 to 5 µM | 1 to 5 µM | 1 to 5 µM
9 | CCCCOc1cc(OCCCN(CC)CC)ccc1NC(=O)C(CC1CCCNC1)NC(=O)OCC1c2ccccc2-c2ccccc21 (stereo not drawn) [Example 30, 3-(Piperidin-3-yl)-2-(9-fluorenylmethoxycarbonylamino)propionic Acid 4-Diethylaminopropoxy-2-butoxyaniline Amide] | 0.5 to 1 µM | 0.5 to 1 µM | 0.5 to 1 µM
10 | (2R)-2-tert-butoxycarbonylamino-3-[4-(benzyloxy)phenyl]propionic Acid 4-(3-diethylaminopropoxy)-N-isopropylaniline Amide [Example 15] | 5 to 10 µM | 1 to 5 µM | 1 to 5 µM
